Assays:
SK-N-MC = assay: In vitro inhibition of CGRP-mediated cAMP production in SK-N-MC cells; format: functional, cell-based; conditions: Homo sapiens
[1] = target: T1, Calcitonin gene-related peptide type 1 receptor (Homo sapiens, UniProt O60894+Q16602); assay: Displacement of [125I]hCGRP human Calcitonin gene-related peptide type receptor expressed in SK-N-MC neuroblastoma cell membranes
[2] = target: T1, Calcitonin gene-related peptide type 1 receptor; assay: Compound was tested in vitro for its binding affinity towards recombinant human Calcitonin gene-related peptide type receptor (membranes of HEK293 cells) using [125I]hCGRP as radioligand; format: cell membranes
[3] = Inhibitory concentration in vitro using porcine lung membrane (to identify non-peptide antagonist of the CGRP receptor); format: functional, cell membranes, Sus scrofa
[4] = Compound (up to 30 uM) was tested in vitro for percent effectiveness for ligand binding to GLP-1 receptors
[5] = target: T2, Endothelin-1 receptor (Homo sapiens) (UniProt P25101); assay: Compound (up to 30 uM) was tested in vitro for percent effectiveness for ligand binding to ETA receptors
T2 sequence (whole entry): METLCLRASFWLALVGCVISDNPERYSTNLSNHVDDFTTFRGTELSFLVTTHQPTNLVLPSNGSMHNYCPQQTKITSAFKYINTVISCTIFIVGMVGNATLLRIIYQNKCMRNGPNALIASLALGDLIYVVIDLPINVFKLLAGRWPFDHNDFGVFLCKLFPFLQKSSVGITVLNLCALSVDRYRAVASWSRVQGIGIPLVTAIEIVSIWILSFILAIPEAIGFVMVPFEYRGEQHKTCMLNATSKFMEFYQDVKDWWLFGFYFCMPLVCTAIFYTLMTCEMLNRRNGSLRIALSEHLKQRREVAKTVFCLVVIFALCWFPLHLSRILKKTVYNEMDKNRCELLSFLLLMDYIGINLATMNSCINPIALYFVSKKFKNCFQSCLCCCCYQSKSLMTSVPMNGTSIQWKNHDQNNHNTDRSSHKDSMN

[6] = target: T3, Endothelin receptor type B (Homo sapiens) (UniProt P24530); assay: Compound (up to 30 uM) was tested in vitro for percent effectiveness for ligand binding to ETB receptors
T3 sequence (whole entry): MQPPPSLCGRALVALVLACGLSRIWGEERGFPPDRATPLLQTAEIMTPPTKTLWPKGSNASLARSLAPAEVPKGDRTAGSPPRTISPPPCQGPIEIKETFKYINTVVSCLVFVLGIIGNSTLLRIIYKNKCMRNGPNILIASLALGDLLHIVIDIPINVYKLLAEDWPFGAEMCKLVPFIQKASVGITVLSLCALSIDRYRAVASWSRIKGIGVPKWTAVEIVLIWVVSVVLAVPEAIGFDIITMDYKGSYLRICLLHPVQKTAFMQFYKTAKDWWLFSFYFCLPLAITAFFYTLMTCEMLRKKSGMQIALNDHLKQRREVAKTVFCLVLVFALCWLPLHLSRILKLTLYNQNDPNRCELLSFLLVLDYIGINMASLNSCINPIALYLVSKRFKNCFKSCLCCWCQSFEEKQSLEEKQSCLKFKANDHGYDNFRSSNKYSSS

[7] = target: G-protein coupled receptor 182 (Homo sapiens) (UniProt O15218); assay: Compound (up to 30 uM) was tested in vitro for percent effectiveness for ligand binding to Adrenomedullin receptor
[8] = target: T4, Vasoactive intestinal peptide receptor (Gallus gallus) (UniProt A5A0U0); assay: Compound (up to 30 uM) was tested in vitro for percent effectiveness for ligand binding to Vasoactive intestinal peptide receptor
T4 sequence (whole entry): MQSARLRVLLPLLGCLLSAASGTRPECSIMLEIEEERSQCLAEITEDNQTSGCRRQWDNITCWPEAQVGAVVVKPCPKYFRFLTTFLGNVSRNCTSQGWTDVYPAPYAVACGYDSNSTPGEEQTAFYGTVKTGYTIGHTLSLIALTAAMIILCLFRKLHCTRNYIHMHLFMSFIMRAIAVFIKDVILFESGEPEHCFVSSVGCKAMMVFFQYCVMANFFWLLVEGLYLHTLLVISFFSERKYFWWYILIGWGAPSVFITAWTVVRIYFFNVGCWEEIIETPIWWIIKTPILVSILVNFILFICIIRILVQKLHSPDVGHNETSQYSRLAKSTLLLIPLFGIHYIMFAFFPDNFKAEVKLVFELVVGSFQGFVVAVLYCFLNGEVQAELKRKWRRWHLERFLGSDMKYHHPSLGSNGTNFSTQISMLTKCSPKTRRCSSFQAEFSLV

[9] = target: T5, Type-1 angiotensin II receptor A (Rattus norvegicus) (UniProt P25095); assay: Compound (up to 30 uM) was tested in vitro for percent effectiveness for ligand binding to Angiotensin II receptor
T5 sequence (whole entry): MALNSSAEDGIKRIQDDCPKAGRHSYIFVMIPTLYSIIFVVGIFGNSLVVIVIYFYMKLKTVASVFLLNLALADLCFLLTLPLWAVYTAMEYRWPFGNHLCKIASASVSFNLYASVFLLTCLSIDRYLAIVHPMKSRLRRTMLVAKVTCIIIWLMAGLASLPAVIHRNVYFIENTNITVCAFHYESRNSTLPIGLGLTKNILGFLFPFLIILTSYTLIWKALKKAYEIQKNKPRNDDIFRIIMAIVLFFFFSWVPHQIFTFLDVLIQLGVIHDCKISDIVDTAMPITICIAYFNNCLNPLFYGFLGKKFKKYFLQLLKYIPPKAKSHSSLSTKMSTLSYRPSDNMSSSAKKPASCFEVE

T1 sequence (Q16602 whole entry, one chain of several): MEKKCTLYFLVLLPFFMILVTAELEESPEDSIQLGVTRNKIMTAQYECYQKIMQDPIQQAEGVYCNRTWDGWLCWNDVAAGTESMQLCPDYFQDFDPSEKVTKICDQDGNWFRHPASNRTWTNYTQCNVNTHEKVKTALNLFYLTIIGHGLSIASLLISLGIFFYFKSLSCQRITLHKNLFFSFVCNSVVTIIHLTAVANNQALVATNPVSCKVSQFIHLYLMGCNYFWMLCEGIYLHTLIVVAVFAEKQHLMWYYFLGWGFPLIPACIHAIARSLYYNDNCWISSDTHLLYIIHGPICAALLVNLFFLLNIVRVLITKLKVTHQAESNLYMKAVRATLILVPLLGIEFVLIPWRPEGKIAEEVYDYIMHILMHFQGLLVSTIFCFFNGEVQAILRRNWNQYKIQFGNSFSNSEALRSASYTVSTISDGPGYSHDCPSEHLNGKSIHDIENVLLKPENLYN
Sequence of G-protein coupled receptor 182 (Homo sapiens) (O15218 whole entry): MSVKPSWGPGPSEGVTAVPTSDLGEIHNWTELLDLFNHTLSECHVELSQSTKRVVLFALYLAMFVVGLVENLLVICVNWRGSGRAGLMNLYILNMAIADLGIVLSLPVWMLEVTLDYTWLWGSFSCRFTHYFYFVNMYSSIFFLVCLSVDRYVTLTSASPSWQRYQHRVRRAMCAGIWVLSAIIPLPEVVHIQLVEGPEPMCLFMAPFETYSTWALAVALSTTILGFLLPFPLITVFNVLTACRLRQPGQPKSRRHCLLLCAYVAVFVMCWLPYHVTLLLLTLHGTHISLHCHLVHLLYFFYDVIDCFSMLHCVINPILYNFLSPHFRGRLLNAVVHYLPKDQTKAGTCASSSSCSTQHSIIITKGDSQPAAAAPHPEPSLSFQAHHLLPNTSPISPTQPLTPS

## CCC1CN2CCC1CC2[C@H](O)c1cc(-c2ccc(Cl)cc2Cl)nc2ccc(OC)cc12 (stereo partly specified)
SK-N-MC
  IC50: 28 µM
[1]
  IC50: 37 µM

## CCC1CN2CCC1CC2[C@H](O)c1cc(-c2cccc(N)c2)nc2ccc(OC)cc12 (stereo partly specified)
SK-N-MC
  IC50: > 100 µM
[1]
  IC50: > 100 µM

## CCC1CN2CCC1CC2[C@H](O)c1cc(-c2ccsc2)nc2ccc(OC)cc12 (stereo partly specified)
[1]
  IC50: > 100 µM

## CCC1CN2CCC1CC2[C@H](O)c1cc(-c2cccc([N+](=O)[O-])c2)nc2ccc(OC)cc12 (stereo partly specified)
[1]
  IC50: 41 µM

## CCC1CN2CCC1CC2[C@H](O)c1cc(-c2ccc(Oc3ccccc3)cc2)nc2ccc(OC)cc12 (stereo partly specified)
SK-N-MC
  IC50: 22 µM
[1]
  IC50: 12 µM

## CCC1CN2CCC1CC2[C@H](O)c1cc(-c2ccc(Cl)cc2)nc2ccc(OC)cc12 (stereo partly specified)
SK-N-MC
  IC50: 26 µM
[2]
  IC50: 5.5 µM
[3]
  IC50: 6 µM
[4]
  inhibition: < 20%
[5]
  inhibition: < 20%
[6]
  inhibition: < 20%
[7]
  inhibition: < 20%
[8]
  inhibition: < 20%
[9]
  inhibition: < 20%
[1]
  IC50: 5.9 µM

## CCC1CN2CCC1CC2[C@H](O)c1cc(-c2ccc(OC)cc2)nc2ccc(OC)cc12 (stereo partly specified)
[1]
  IC50: > 100 µM

## CCC1CN2CCC1CC2[C@H](O)c1cc(-c2ccc(F)c(Cl)c2)nc2ccc(OC)cc12 (stereo partly specified)
SK-N-MC
  IC50: 14 µM
[1]
  IC50: 17 µM

## CCC1CN2CCC1CC2[C@H](O)c1cc(-c2ccccc2)nc2ccc(OC)cc12 (stereo partly specified)
SK-N-MC
  IC50: 65 µM
[1]
  IC50: 96 µM

## CCC1CN2CCC1CC2[C@H](O)c1cc(-c2cccc3ccccc23)nc2ccc(OC)cc12 (stereo partly specified)
SK-N-MC
  IC50: 23 µM
[1]
  IC50: 33 µM

## CCC1CN2CCC1CC2[C@H](O)c1cc(-c2ccc(C(F)(F)F)cc2)nc2ccc(OC)cc12 (stereo partly specified)
SK-N-MC
  IC50: 24 µM
[1]
  IC50: 5.2 µM

## CCC1CN2CCC1CC2[C@H](O)c1cc(-c2ccc3c(c2)OCO3)nc2ccc(OC)cc12 (stereo partly specified)
SK-N-MC
  IC50: 60 µM
[1]
  IC50: 74 µM

## CCC1CN2CCC1CC2[C@H](O)c1cc(-c2cccc(C(F)(F)F)c2)nc2ccc(OC)cc12 (stereo partly specified)
SK-N-MC
  IC50: 20 µM
[1]
  IC50: 9.9 µM
